According to ChEMBL document CHEMBL3885881, “DrugMatrix”:

Species: Rattus norvegicus
Assay: DrugMatrix - Regimen: Daily Repeat
Format: toxicity, organism-based, Sprague-Dawley
Design: regimen Daily Repeat, gender Male, age 6-8 weeks
Details: in vivo, sc, route subcutaneous, […]; for ABSOLUTE BASOPHIL / ABSOLUTE EOSINOPHIL / ABSOLUTE LYMPHOCYTE / ABSOLUTE MONOCYTE / ABSOLUTE SEGMENTED NEUTROPHIL / BASOPHIL / EOSINOPHIL / ERYTHROCYTE COUNT / HEMATOCRIT / HEMOGLOBIN / LEUKOCYTE COUNT / LYMPHOCYTE / MEAN CORPUSCULAR HEMOGLOBIN / MEAN CORPUSCULAR HEMOGLOBIN CONCENTRATION / MEAN CORPUSCULAR VOLUME / MONOCYTE / NEUTROPHIL / NUCLEATED RED BLOOD CELLS / PLATELET COUNT: tissue Blood; for ALANINE AMINOTRANSFERASE / ALBUMIN / ALKALINE PHOSPHATASE / ASPARTATE AMINOTRANSFERASE / BLOOD UREA NITROGEN / CARBON DIOXIDE / CHLORIDE / CHOLESTEROL / CREATINE PHOSPHOKINASE / CREATININE / GLUCOSE / LACTATE DEHYDROGENASE / LIPASE / PHOSPHORUS / POTASSIUM / SODIUM / TOTAL BILIRUBIN / TOTAL PROTEIN / URIC ACID: tissue Plasma
[1] = 0 mg/kg, 72 h, dose level Control, time 3 day
[2] = 0 mg/kg, 120 h, dose level Control, time 5 day
[3] = 50 mg/kg, 72 h, dose level Low, time 3 day

SMILES: CC(C)(c1ccc(O)cc1)c1ccc(O)cc1 [BISPHENOL A]
- ABSOLUTE BASOPHIL [1]: 0 CELLS/uL
- ABSOLUTE EOSINOPHIL [1]: 0 CELLS/uL
- ABSOLUTE LYMPHOCYTE [1]: 9782.33 CELLS/uL
- ABSOLUTE MONOCYTE [1]: 114.67 CELLS/uL
- ABSOLUTE SEGMENTED NEUTROPHIL [1]: 753 CELLS/uL
- BASOPHIL [1]: 0%
- EOSINOPHIL [1]: 0%
- ERYTHROCYTE COUNT [1]: 5.14 x10E6/uL
- HEMATOCRIT [1]: 32.12%
- HEMOGLOBIN [1]: 13.13 G/DL
- LEUKOCYTE COUNT [1]: 10.65 x10E3/uL
- LYMPHOCYTE [1]: 91.83%
- MEAN CORPUSCULAR HEMOGLOBIN [1]: 25.83 pg
- MEAN CORPUSCULAR HEMOGLOBIN CONCENTRATION [1]: 41.28 G/DL
- MEAN CORPUSCULAR VOLUME [1]: 62.43 fL
- MONOCYTE [1]: 1%
- NEUTROPHIL [1]: 7.17%
- NUCLEATED RED BLOOD CELLS [1]: 0.17 /100WBC
- PLATELET COUNT [1]: 657.83 x10E3/uL
- ALANINE AMINOTRANSFERASE [1]: 60.33 u/L
- ALBUMIN [1]: 3.83 G/DL
- ALKALINE PHOSPHATASE [1]: 366.33 u/L
- ASPARTATE AMINOTRANSFERASE [1]: 104.5 u/L
- BLOOD UREA NITROGEN [1]: 12.33 mg/dL
- CARBON DIOXIDE [1]: 23.17 mmol/L
- CHLORIDE [1]: 96.67 MEQ/L
- CHOLESTEROL [1]: 73.17 mg/dL
- CREATINE PHOSPHOKINASE [1]: 545.83 u/L
- CREATININE [1]: 0.26 mg/dL
- GLUCOSE [1]: 144.33 mg/dL
- LACTATE DEHYDROGENASE [1]: 147.5 u/L
- LIPASE [1]: 9.33 u/L
- PHOSPHORUS [1]: 10.83 mg/dL
- POTASSIUM [1]: 5.68 MEQ/L
- SODIUM [1]: 138.83 MEQ/L
- TOTAL BILIRUBIN [1]: 0.17 mg/dL
- TOTAL PROTEIN [1]: 5.42 G/DL
- URIC ACID [1]: 0.65 mg/dL
- ABSOLUTE BASOPHIL [2]: 0 CELLS/uL
- ABSOLUTE EOSINOPHIL [2]: 43.33 CELLS/uL
- ABSOLUTE LYMPHOCYTE [2]: 12883 CELLS/uL
- ABSOLUTE MONOCYTE [2]: 166.83 CELLS/uL
- ABSOLUTE SEGMENTED NEUTROPHIL [2]: 1290.17 CELLS/uL
- BASOPHIL [2]: 0%
- EOSINOPHIL [2]: 0.33%
- ERYTHROCYTE COUNT [2]: 5.79 x10E6/uL
- HEMATOCRIT [2]: 36.37%
- HEMOGLOBIN [2]: 14.17 G/DL
- LEUKOCYTE COUNT [2]: 14.38 x10E3/uL
- LYMPHOCYTE [2]: 89.17%
- MEAN CORPUSCULAR HEMOGLOBIN [2]: 24.48 pg
- MEAN CORPUSCULAR HEMOGLOBIN CONCENTRATION [2]: 38.98 G/DL
- MEAN CORPUSCULAR VOLUME [2]: 62.83 fL
- MONOCYTE [2]: 1.17%
- NEUTROPHIL [2]: 9.33%
- NUCLEATED RED BLOOD CELLS [2]: 0.5 /100WBC
- PLATELET COUNT [2]: 1267.33 x10E3/uL
- ALANINE AMINOTRANSFERASE [2]: 53.5 u/L
- ALBUMIN [2]: 3.82 G/DL
- ALKALINE PHOSPHATASE [2]: 342.33 u/L
- ASPARTATE AMINOTRANSFERASE [2]: 83.67 u/L
- BLOOD UREA NITROGEN [2]: 13.17 mg/dL
- CARBON DIOXIDE [2]: 28.17 mmol/L
- CHLORIDE [2]: 101.5 MEQ/L
- CHOLESTEROL [2]: 70.83 mg/dL
- CREATINE PHOSPHOKINASE [2]: 656.67 u/L
- CREATININE [2]: 0.17 mg/dL
- GLUCOSE [2]: 171.33 mg/dL
- LACTATE DEHYDROGENASE [2]: 169 u/L
- LIPASE [2]: 9.17 u/L
- PHOSPHORUS [2]: 12.88 mg/dL
- POTASSIUM [2]: 6.54 MEQ/L
- SODIUM [2]: 141.2 MEQ/L
- TOTAL BILIRUBIN [2]: 0.18 mg/dL
- TOTAL PROTEIN [2]: 5.68 G/DL
- URIC ACID [2]: 2.02 mg/dL
- ABSOLUTE BASOPHIL [3]: 0 CELLS/uL
- ABSOLUTE EOSINOPHIL [3]: 47.33 CELLS/uL
- ABSOLUTE LYMPHOCYTE [3]: 13197 CELLS/uL
- ABSOLUTE MONOCYTE [3]: 0 CELLS/uL
- ABSOLUTE SEGMENTED NEUTROPHIL [3]: 655.67 CELLS/uL
- BASOPHIL [3]: 0%
- EOSINOPHIL [3]: 0.33%
- ERYTHROCYTE COUNT [3]: 5.26 x10E6/uL
- HEMATOCRIT [3]: 33.73%
- HEMOGLOBIN [3]: 13.37 G/DL
- LEUKOCYTE COUNT [3]: 13.9 x10E3/uL
- LYMPHOCYTE [3]: 94.67%
- MEAN CORPUSCULAR HEMOGLOBIN [3]: 25.43 pg
- MEAN CORPUSCULAR HEMOGLOBIN CONCENTRATION [3]: 39.67 G/DL
- MEAN CORPUSCULAR VOLUME [3]: 64.23 fL
- MONOCYTE [3]: 0%
- NEUTROPHIL [3]: 5%
- NUCLEATED RED BLOOD CELLS [3]: 0 /100WBC
- PLATELET COUNT [3]: 1085.33 x10E3/uL
- ALANINE AMINOTRANSFERASE [3]: 58.33 u/L
- ALBUMIN [3]: 4.1 G/DL
- ALKALINE PHOSPHATASE [3]: 341 u/L
- ASPARTATE AMINOTRANSFERASE [3]: 86.67 u/L
- BLOOD UREA NITROGEN [3]: 11.33 mg/dL
- CARBON DIOXIDE [3]: 27.67 mmol/L
- CHLORIDE [3]: 96.5 MEQ/L
- CHOLESTEROL [3]: 65.67 mg/dL
- CREATINE PHOSPHOKINASE [3]: 317.33 u/L
- CREATININE [3]: 0.21 mg/dL
- GLUCOSE [3]: 134 mg/dL
- LACTATE DEHYDROGENASE [3]: 126.67 u/L
- LIPASE [3]: 12.33 u/L
- PHOSPHORUS [3]: 10.53 mg/dL
- POTASSIUM [3]: 5.77 MEQ/L
- SODIUM [3]: 139.05 MEQ/L
- TOTAL BILIRUBIN [3]: 0.17 mg/dL
- TOTAL PROTEIN [3]: 5.33 G/DL
- URIC ACID [3]: 0.37 mg/dL
